Series [1] in a line: Clinical study: 17β-estradiol/norethisterone acetate with or without DHEA (Example 3). The format is in vivo. As to conditions: 50 mg DHEA daily oral added to 3 mg 17β-estradiol and 1.5 mg norethisterone acetate for 104 days, versus women not receiving DHEA. The procedure:
A clinical study is conducted in 100 healthy young women. […] Vaginal spotting and bleeding is scored daily by the participants in a diary. The effects on general well being are scored at baseline and at each study visit (every 5 weeks during study drug administration) using the psychometric rating scale described in example 2.
Ovulation inhibition is investigated by analysing pregnanediol samples twice a week during 4 weeks between week 7 and 14. In addition, endocrine measurements are performed in a subgroup of the participants (17β-estradiol, progesterone, total testosterone, LH, FSH and SHBG).

A short description of series [2]: Clinical study: ethinyl estradiol/levonorgestrel with or without DHEA (Example 2). The format is in vivo. As to conditions: 50 mg DHEA daily oral added to ethinyl estradiol/levonorgestrel for 104 days, versus women not receiving DHEA. How it is done:
A clinical study is conducted in 200 healthy young women. […] Vaginal spotting and bleeding is scored daily by the participants in a diary and the effects on general well being are scored at baseline and at each study visit (every 5 weeks during study drug administration) on a psychometric rating scale. The psychometric rating scale used is especially suited for identifying differences in a population of healthy young women. The scale is a 24-item (placid, sleepy, jittery, intense, lacking confidence, energetic, sensitive, tired, well-balanced, at-rest, drowsy, fearful, lively, sickly, in a good mood, irritable, lethargic, quiet, full-of-pep, optimistic, moody, active, tense, sad), 4-point (yes, definitely; yes, a bit; no, in fact not; no, definitely not) scale to be scored by the person themself. In addition, endocrine measurements are performed in a subgroup of the participants (17β-estradiol, progesterone, total testosterone, LH, FSH and SHBG).

Series [3] deals with endometrium. Conditions: DHEA applied on the dorsal skin of ovariectomized rats, all time intervals; cited from earlier work.
Series [4] concerns endometrium. The series can be described thus: McPhail test: endometrial differentiation in estradiol-pretreated rabbits. The format is in vivo. As to conditions: rabbits pretreated with 5 μg 17β-estradiol s.c. for 6 days; levonorgestrel 8 μg/day oral and/or testosterone 20 mg/day s.c. for 5 days; scores 0-4. The procedure:
The effects on endometrium of the progestogen levonorgestrel and the androgen testosterone were determined in rabbits according to the method of McPhail (Mc Phail M. K. “The assay of progestin” J Physiol (1934), 83, 145-156). Four groups of each 5 rabbits were pretreated with daily subcutaneous dosages of 5 μg 17β-estradiol for 6 days.
After pretreatment, 3 groups either received levonorgestrel at an oral dose of 8 μg per day for 5 days, testosterone in a subcutaneous dose of 20 mg per day for 5 days, or levonorgestrel and testosterone together in the aforementioned routes and doses for 5 days. The fourth group was used as the negative control.
Autopsy was performed after the treatment period and the uterus was weighed and histological sections were prepared from each uterine horn and these were microscopically evaluated according to the McPhail Index (scores 0-4; 0=no differentiation; 4=maximal differentiation).

Series [5] deals with T1, androgen receptors (Homo sapiens, UniProt P10275).
T1 sequence (P10275 1-920): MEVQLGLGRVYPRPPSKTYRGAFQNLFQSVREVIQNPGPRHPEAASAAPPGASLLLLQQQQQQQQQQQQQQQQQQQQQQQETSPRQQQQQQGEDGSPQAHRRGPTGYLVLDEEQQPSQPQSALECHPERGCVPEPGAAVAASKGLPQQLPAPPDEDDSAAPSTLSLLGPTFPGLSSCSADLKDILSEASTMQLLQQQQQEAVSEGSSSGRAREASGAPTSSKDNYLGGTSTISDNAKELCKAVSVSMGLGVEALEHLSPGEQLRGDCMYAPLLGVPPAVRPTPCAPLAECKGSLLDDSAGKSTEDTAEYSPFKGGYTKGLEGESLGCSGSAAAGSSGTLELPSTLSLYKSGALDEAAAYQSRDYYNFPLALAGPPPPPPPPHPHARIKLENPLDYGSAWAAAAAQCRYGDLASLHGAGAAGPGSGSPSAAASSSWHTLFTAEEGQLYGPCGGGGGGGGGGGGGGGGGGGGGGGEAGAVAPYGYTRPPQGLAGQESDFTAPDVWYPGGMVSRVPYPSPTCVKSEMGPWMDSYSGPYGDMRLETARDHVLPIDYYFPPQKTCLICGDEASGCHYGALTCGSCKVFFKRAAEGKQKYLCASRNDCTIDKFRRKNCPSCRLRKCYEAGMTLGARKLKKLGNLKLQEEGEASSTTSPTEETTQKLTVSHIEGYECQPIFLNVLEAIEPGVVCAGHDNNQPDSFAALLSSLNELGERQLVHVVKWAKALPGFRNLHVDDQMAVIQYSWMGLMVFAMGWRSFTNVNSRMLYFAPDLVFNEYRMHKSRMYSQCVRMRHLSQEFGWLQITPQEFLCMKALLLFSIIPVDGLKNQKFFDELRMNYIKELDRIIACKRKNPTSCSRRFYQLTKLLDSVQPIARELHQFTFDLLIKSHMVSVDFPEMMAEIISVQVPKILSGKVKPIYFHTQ
Conditions: precursors per se, in the female body; cited from earlier work.

On to `C[C@]12CC[C@H](O)CC1=CC[C@@H]1[C@@H]2CC[C@]2(C)C(=O)CC[C@@H]12` [DHEA, dehydroepiandrosterone], for which, in series [1], the “psychometric scores on items in the domain of energy” value is listed as “generally better scores”; the side effects result is given as “less side effects”; the “vaginal breakthrough spotting and bleeding” value is “less vaginal breakthrough spotting and bleeding”. Moreover, in series [2], the “psychometric scores on items in the domain of energy” value was “generally better scores”; the side effects entry was “less side effects”; the “vaginal breakthrough spotting and bleeding” value is “less vaginal breakthrough spotting and bleeding”. In addition, the “state of the endometrium during DHEA treatment” value in series [3] was “remained atrophic”.
Take `C#C[C@]1(O)CC[C@H]2[C@@H]3CCC4=CC(=O)CC[C@@H]4[C@H]3CC[C@@]21CC` [levonorgestrel]: the McPhail index in series [4] is listed as 2.1±0.4.
`CCCCCCCCCCC(=O)O[C@H]1CC[C@H]2[C@@H]3CCC4=CC(=O)CC[C@]4(C)[C@H]3CC[C@]12C` [testosterone undecanoate]: the “affinity for the androgen receptors” value in series [5] is listed as “virtually no affinity”.
In the case of `C[C@]12CC[C@H]3[C@@H](CCC4=CC(=O)CC[C@@]43C)[C@@H]1CC[C@@H]2O` [testosterone], the McPhail index in series [4] stood at 2.9±0.1.

These data come from patent US8071576B2, “Method of preventing or treating benign gynaecological disorders” (Pantarhei Bioscience B.V., priority 2001, dated 2011).
